Laboratory results published in patent publication US11491168B2, “Combination of Bcl-2/Bcl-xL inhibitors and chemotherapeutic agent and use thereof” (ASCENTAGE PHARMA (SUZHOU) CO., LTD., priority 2019, dated 2022).
“And” between values parts separate entries of the source, which are not always exact repeats. Equal entries are not always repeated. Where two headings read alike, the source gives them in different places.

Assays:
NCI-N87 xenograft [1] = test: NCI-N87 xenograft model, Compound 15 with 5-FU; settings: for mouse tumor volume upon the end point: Compound 15 50 mg/kg qd 10 days, 5-FU 25 mg/kg once a week for two weeks
NCI-N87 cells = test: AnnexinV/PI staining apoptosis, NCI-N87; assay type: cell-based; settings: NCI-N87, 48 hours; Compound 31 0.3 μM, 5-FU 3 μM
Protocol: (§1) The inventors chose to combine Compound 31 with one of the most common chemotherapeutic drugs in clinic, 5-fluorouracil (5-FU). In order to investigate the effect and the potential mechanisms of Compound 31 and 5-FU on the growth of gastric cancer cells, the inventors used the AnnexinV/PI staining to detect the apoptosis of two gastric cancer cells, AGS and NCI-N87, 48 hours after the treatment with Compound 31 (0.3 μM), 5-FU (3 μM), and the combination at specified concentrations. […] In NCI-N87 cells, the combination group also achieved a higher apoptosis rate than the mono therapy groups, Compound 31 or 5-FU as a single agent leading to apoptosis rates of 24% or 18% while the combination group reaching an apoptosis rate of 46% (FIG. 29(a)).

AGS cells = test: AnnexinV/PI staining apoptosis, AGS; assay type: cell-based; settings: 48 hours, Compound 31 0.3 μM, 5-FU 3 μM
Protocol: as §1

Mcl-1 = Mcl-1 (Homo sapiens, UniProt Q07820); test: binding to Mcl-1
[2] = test system: human SW620 cell line colon cancer xenograft; test: SW620 colon cancer xenograft model; assay type: in vivo, mice; settings: single agents: Compound 15 100 mg/kg; irinotecan 50 mg/kg
Protocol: (§4) Subcutaneous xenograft tumor model of human cancer was established in immunodeficient mouse by cell inoculation: tumor cells in logarithmic growth phase were collected, counted, and then re-suspended in 1×PBS. The concentration of the cell suspension was adjusted to 2.5-5×10^7/mL. Tumor cells were inoculated subcutaneously in the right back of the immunized normal mouse with a 1 mL syringe (4 gauge needle) at 5-10×10^6/0.2 mL/mouse.
(§5) Animal weight and tumor size were measured twice a week during the study. The animals were checked daily for morbility and etc. […] Mortality and clinical signs observed during the study were recorded in the raw data. […]
(§6) Tumor volume (TV) was calculated as: TV=a×b^2/2 wherein a and b represent the measured length and width of tumor, respectively.
(§7) Relative tumor volume (RTV) was calculated as: RTV=Vt/V1 wherein V1 was the tumor volume on the first day of dosing, and Vt was the tumor volume measured on day t after dosing.
(§8) Relative tumor proliferation rate T/C (%), as an indication of anti-tumor effectiveness, was calculated as: Relative tumor proliferation rate T/C (%)=(TRTV/CRTV)×100%, wherein TRTV was RTV in treatment group, and CRTV was RTV in vehicle control group. […]

platelet = platelet toxicity; settings: versus first-generation BCL-2 inhibitors
NCI-N87 xenograft [3] = test: NCI-N87 xenograft model, Compound 15 single agent; assay type: in vivo, nude mice; settings: for mouse tumor volume upon the end point: tail vein injection, 10 consecutive days
Protocol: The NCI-N87 tumor-bearing mice were treated with different doses of Compound 15 by tail vein injection for 10 consecutive days.
The inventors extracted proteins from the removed tumor tissues and prepared tissue sections.

Bcl-w = Bcl-w (Homo sapiens, UniProt Q92843); test: binding to Bcl-w protein
[4] = test system: SCLC patient-derived xenograft LU5188; test: LU5188 SCLC patient-derived xenograft; assay type: in vivo, female NOD.SCID mice; settings: for T/C (%) @ day 21: doses as Table 3; for RTV @day 21: mean ± SEM, Compound 15 50 mg/kg i.v. BIW, Irinotecan 10 mg/kg i.p. Q4D, Paclitaxel 10 mg/kg i.v. Q4D
Protocol: (§2) The therapeutic efficacy of compound 15 alone and its multiple combinations in the treatment of subcutaneous HuPrime® Lung cancer xenograft model LU5250 and LU5188 in female NOD.SCID mice was evaluated.
(§3) Either LU5250 or LU5188 tumor mass with rough size of 3×3×3 mm^3 were inoculated into female NOD.SCID mice and the day of randomization was denoted as day 1. The treatment was initiated on day 1 when tumors approximated a mean volume 136 mm^3 of LU5250 and 155 mm^3 of LU5188, respectively. There were 6 groups enrolled in each model eventually. See Table 3 for the mode of administration and doses. Both models were taken down on day 21.

[5] = test system: subcutaneous NCI-H146 lung cancer xenograft; test: NCI-H146 lung cancer xenograft model (Example 8); assay type: in vivo, female SCID mice; settings: for RTV @day 21: Compound 15 20 mg/kg i.v. BIW, Irinotecan 5 mg/kg i.p. QW, Paclitaxel 10 mg/kg i.v. QW, Cisplatin 1 mg/kg i.p. Q4D; for mRECIST_best: best response during the treatment, PR partial response, CR complete response, SD stable disease, PD progressive disease; for T/C (%) @ day 21: doses as Table 6; for mRECIST_last: response on the last day of treatment, PR, CR, SD, PD
Protocol: The therapeutic efficacy of compound 15 alone and in multiple combinations in the treatment of subcutaneous NCI-H146 lung cancer xenograft model was evaluated.
1×10^7 NCI-H146 tumor cells were pre-treated in 0.1 mL of phosphate buffer and Matrigel (7:3) and inoculated into female SCID mice. The day of randomization was denoted as day 1. The treatment was initiated on day 1. The study was conducted in 8 groups of mice. See Table 6 for the mode of administration and doses. The entire study was taken down on day 21. The study was conducted in 40 mice. All the animals were randomized into 8 experimental groups.

metastatic solid tumors [6] = test: U.S. clinical trial as of Dec. 21, 2019; assay type: in vivo
Protocol: Three clinical trials (Phase I or Phase I/II) with similar study designs were conducted in the United States, Australia, and China. During the dose escalation phase, the patient received Compound 15 (10-400 mg) twice weekly or weekly intravenously for a 28-day treatment cycle. Tumor response assessment was performed every 2 cycles according to RECIST 1.1 criteria. The purpose of the study was to assess safety, maximum tolerated dose (MTD)/recommended phase II dose (RP2D), pharmacokinetics (PK), pharmacodynamics (PD), and the preliminary efficacy of Compound 15 as a single agent in metastatic solid tumors.
As of Dec. 21, 2019, 42 US patients with metastatic solid tumors (Table A) received Compound 15 treatment ranging from 10-400 mg in at least one 28-day cycle. The patients were treated in 2 cohorts. 31 patients in cohort 1 received Compound 15 twice a week (BIW) by intravenous (IV) infusion at a dose of 10 mg, 20 mg, 40 mg, 80 mg, 160 mg, 240 mg, 320 mg, or 400 mg; 11 patients in cohort 2 received Compound 15 once a week (QW) by IV infusion at a dose of 240 mg or 320 mg.

Bcl-2 = Bcl-2 (Homo sapiens, UniProt P10415); test: binding to Bcl-2 protein
[7] = test system: MDA-MB-231 triple-negative breast cancer tumor cell line; test: WST (CCK-8) anti-proliferation assay
Protocol: Cell plating: Anti-proliferation effects were detected by a CCK-8 (Cell Counting Kit-8) assay based on water soluble tetrazolium salt (WST).
The cells were seeded in 96-well plates. 95 μL complete medium was added to each negative control group, and 95 μL cell suspension in complete medium was added at a density of 5-10×10^4 cells/well to each well to be tested.
The MGC80-3 and SW620 used in the examples were purchased from the Cell Bank of the Shanghai Institute of Biochemistry and Cell Biology, Chinese Academy of Sciences. MDA-MB-231, PC-3, and NCI-H146 were available from the American Type Culture Collection (ATCC) under accession Nos. HTB-26, CRL-1435, and HTB-173, respectively. It should be noted that the cells used in the present disclosure are all available from ATCC. […]
Reading: At the end of the culture, for adherent cells, the old solution in the test wells was removed and 100 μl/well CCK-8 test solution (the corresponding medium containing 10% CCK-8, 5% FBS) was added. […]
The OD value was measured using a microplate reader (SpectraMax Plus 384, Molecular Devices, LLC., US) A450 nm. […] The percentage of cell viability was calculated by the following formula: (O.D. test well−O.D. blank control well)/(O.D. cell control well−O.D. blank control well)×100%.
The IC50 was calculated using the nonlinear regression data analysis method of Graphpad Prism 6.0 software.

[8] = test system: human PC3 cell line prostate cancer xenograft; test: PC3 prostate cancer xenograft model; settings: Compound 15 100 mg/kg; docetaxel 8 mg/kg
Protocol: as §4, §5, §6, §7, §8

Bcl-xl = Bcl-xl (Homo sapiens, UniProt Q07817); test: binding to Bcl-xl protein
[9] = test system: SCLC patient-derived xenograft LU5250; test: LU5250 SCLC patient-derived xenograft; assay type: in vivo, female NOD.SCID mice; settings: for T/C (%) @ day 21: doses as Table 3; for RTV @day 21: mean ± SEM, Compound 15 50 mg/kg i.v. BIW, Irinotecan 10 mg/kg i.p. Q4D, Paclitaxel 10 mg/kg i.v. Q4D
Protocol: as §2, §3

[10] = activity compared with first generation BCL-2 inhibitor
metastatic solid tumors [11] = test: Phase I or I/II clinical trials, pooled results as of Jan. 31, 2019; assay type: in vivo
Protocol: Three clinical trials (Phase I or Phase I/II) with similar study designs were conducted in the United States, Australia, and China. […] Tumor response assessment was performed every 2 cycles according to RECIST 1.1 criteria.

[12] = test system: human MGC80-3 cell line gastric cancer xenograft; test: MGC80-3 gastric cancer xenograft model
Protocol: as §4
Animal weight and tumor size were measured twice a week during the study. The animals were checked daily for morbility and etc. At the time of routine monitoring, the animal were checked for any effects of tumor growth and treatments on behaviors such as mobility, food and water consumption, body weight gain/loss, eyes, hairing and any other abnormalities. Mortality and clinical signs observed during the study were recorded in the raw data. The dosing of the drugs and the measurement of mouse weight and tumor volume were all conducted in a laminar flow cabinet. According to requirements of the study protocol, plasma and tumor tissue were collected, weighed and photographed at the end of last dosing. Plasma and tumor samples were frozen at −80° C. for later use.
as §6, §7
Relative tumor proliferation rate T/C (%), as an indication of anti-tumor effectiveness, was calculated as: Relative tumor proliferation rate T/C (%)=(TRTV/CRTV)×100%, wherein TRTV was RTV in treatment group, and CRTV was RTV in vehicle control group.
Tumor remission rate (%) was calculated by dividing the number of tumor bearing mice that show SD (stable disease), PR (partial regression) and CR (complete regression) after treatment by the total number of mice in the group×100%. Change of body weight (%)=(measured body weight−body weight at randomization)/body weight at randomization×100%.

[13] = FIG. 6: Compound 15 100 mg/kg, docetaxel 12 mg/kg, cisplatin 3 mg/kg

Bcl-2, sequence (P10415 whole entry): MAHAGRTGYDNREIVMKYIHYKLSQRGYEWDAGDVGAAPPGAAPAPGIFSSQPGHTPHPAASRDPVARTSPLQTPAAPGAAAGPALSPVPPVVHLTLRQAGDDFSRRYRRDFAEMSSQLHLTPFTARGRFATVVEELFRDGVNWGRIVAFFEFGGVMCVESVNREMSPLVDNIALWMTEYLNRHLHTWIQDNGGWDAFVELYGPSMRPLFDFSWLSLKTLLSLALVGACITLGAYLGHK
Bcl-xl, sequence (Q07817 whole entry): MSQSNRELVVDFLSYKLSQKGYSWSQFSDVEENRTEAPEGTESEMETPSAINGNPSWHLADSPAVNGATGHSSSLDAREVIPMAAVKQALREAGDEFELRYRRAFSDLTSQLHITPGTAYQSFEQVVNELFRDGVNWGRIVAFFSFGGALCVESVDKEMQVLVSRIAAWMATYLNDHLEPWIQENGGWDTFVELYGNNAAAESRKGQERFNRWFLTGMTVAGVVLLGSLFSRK
Mcl-1, sequence (Q07820 whole entry): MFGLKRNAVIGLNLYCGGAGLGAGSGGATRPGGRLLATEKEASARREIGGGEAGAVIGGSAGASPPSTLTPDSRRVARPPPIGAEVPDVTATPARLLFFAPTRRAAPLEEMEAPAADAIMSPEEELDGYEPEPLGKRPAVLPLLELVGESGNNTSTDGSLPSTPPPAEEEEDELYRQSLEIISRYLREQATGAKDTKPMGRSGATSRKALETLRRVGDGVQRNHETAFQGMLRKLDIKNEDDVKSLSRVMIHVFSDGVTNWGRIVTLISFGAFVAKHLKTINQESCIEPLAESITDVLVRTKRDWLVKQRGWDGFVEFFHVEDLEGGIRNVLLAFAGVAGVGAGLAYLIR
Bcl-w, sequence (Q92843 whole entry): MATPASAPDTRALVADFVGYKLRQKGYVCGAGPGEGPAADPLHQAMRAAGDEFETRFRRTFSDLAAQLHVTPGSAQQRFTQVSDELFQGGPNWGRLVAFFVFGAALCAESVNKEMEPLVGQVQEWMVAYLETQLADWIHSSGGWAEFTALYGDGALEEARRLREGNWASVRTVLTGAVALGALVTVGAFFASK

Compound: O=c1[nH]cc(F)c(=O)[nH]1 [Compound 5-FU, 5-fluorouracil, reference compound]
- mouse tumor volume upon the end point (NCI-N87 xenograft [1]): 2200 mm^3
- apoptosis rate (NCI-N87 cells): 18%
- apoptosis rate (AGS cells): ~15%

Compound: Cc1c(S(C)(=O)=O)c(-c2cc(F)cc(N3CCN(c4ccc(NS(=O)(=O)c5ccc(N[C@H](CCN6CCC(C(=O)OCCP(=O)(O)O)CC6)CSc6ccccc6)c(S(=O)(=O)C(F)(F)F)c5)cc4)CC3)c2)c(-c2ccc(Cl)cc2)n1C(C)C [Compound 15, (R)-2-(1-(3-(4-(N-(4-(4-(3-(2-(4-chlorophenyl)-1-isopropyl-5-methyl-4-(methylsulfonyl)-1H-pyrrol-3-yl)-5-fluorophenyl)piperazin-1-yl)phenyl)sulfamoyl)-2-(trifluoromethylsulfonyl)phenylamino)-4-(phenylthio)butyl)piperidine-4-carbonyloxy)ethylphosphonic acid]
- binding to Mcl-1 (Mcl-1): binds weakly
- T/C (%) [2]: 60.6%
- platelet toxicity reduced (platelet): 10-30 times
- mouse tumor volume upon the end point (NCI-N87 xenograft [3]; 25 mg/kg): 700 mm^3
- mouse tumor volume upon the end point (NCI-N87 xenograft [3]; 50 mg/kg): 800 mm^3
- percentage of Ki67-positive cells (NCI-N87 xenograft [3]; 100 mg/kg group): significantly lower than other groups
- mouse tumor volume upon the end point (NCI-N87 xenograft [3]; 100 mg/kg): about 400 mm^3
- cleaved-caspase3 and PARP-1 cleavage bands in the tumor tissue (NCI-N87 xenograft [3]; 25, 50, 100 mg/kg): gradually increased as the dose increased
- mouse body weight (NCI-N87 xenograft [3]; among the four groups): no significant difference in body weight
- weight and size of the xenograft tumors (NCI-N87 xenograft [3]; as the dosing concentration increased): showed an evident trend of reduction
- mouse tumor volume upon the end point (NCI-N87 xenograft [1]): 1600 mm^3
- mouse body weight (NCI-N87 xenograft [1]; mouse, in vivo): rebounded after a brief weight loss
- IC50 (Bcl-w): 9.3 nM
- T/C (%) @ day 21 [4]: 125.4%
- RTV @day 21 [4]: 17.05 ± 6.59
- RTV @day 21 [5]: 2.0 ± 0.3
- mRECIST_best ([5]; progressive disease): 1/5 PD
- mRECIST_best ([5]; stable disease): 4/5 SD,
- T/C (%) @ day 21 [5]: 70.0%
- mRECIST_last ([5]; progressive disease): 4/5 PD
- mRECIST_last ([5]; stable disease): 1/5 SD,
- patients with partial response (PR) (metastatic solid tumors [6]; 36 patients with post-baseline tumor measurements): 3
- MTD/RP2D (metastatic solid tumors [6]; QW): 240 mg
- duration of PR (metastatic solid tumors [6]; SCLC patient #002-001, 40 mg BIW): 19 cycles
- accumulation (metastatic solid tumors [6]; human, in vivo): No significant accumulation
- time to resolution of platelet drop / thrombocytopenia (metastatic solid tumors [6]; human, in vivo): 2 to 6 days
- TRAE: alanine aminotransferase increased (metastatic solid tumors [6]; human, in vivo, 28 day): 7.1%
- TRAE: aspartate aminotransferase increased (metastatic solid tumors [6]; human, in vivo, 28 day): 9.5%
- TRAE: platelet count decreased (metastatic solid tumors [6]; human, in vivo, 28 day): 14.3%
- patients with ≥G3 treatment emergent adverse events (TRAEs) (metastatic solid tumors [6]; human, in vivo, 28 day): 26.2%
- Cmax and AUC versus dose (metastatic solid tumors [6]; human, in vivo, iv): approximately dose proportional
- IC50 (Bcl-2): 1.6 nM
- IC50 ([7]; Homo sapiens, MDA-MB-231, 72 h, read-out: IC50 (A alone), MDA-MB-231, 72 hours): 2600 nM
- IC50 ([7]; read-out: IC50 (A alone), MDA-MB-231, 72 hours): 4550 nM
- T/C (%) [8]: 84.4%
- IC50 (Bcl-xl): 4.4 nM
- T/C (%) @ day 21 [9]: 136.8%
- RTV @day 21 [9]: 9.75 ± 3.77
- activity relative to the first generation BCL-2 inhibitor [10]: about 10 times
- patients with partial remission (PR) (metastatic solid tumors [11]; 19 evaluated SCLC patients, US patient, dose of 40 mg): 1
- grade 3/4 AE: decreased lymphocyte count (metastatic solid tumors [11]; 44 patients): 6.8%
- grade 3/4 AE: elevated lipase (metastatic solid tumors [11]; 44 patients): 6.8%
- grade 3/4 AE: hyponatremia (metastatic solid tumors [11]; 44 patients): 11.4%
- tolerability (metastatic solid tumors [11]; 44 patients, 7 dose levels, i.v. twice weekly or weekly): well tolerated at all tested dose levels
- cases of stable disease in other tumor types (metastatic solid tumors [11]; Australian studies, e.g. CRC): 5
- AUC and Cmax on day 1 versus dose (metastatic solid tumors [11]; dose range of 10-160 mg): increased proportionally with dose
- MTD (metastatic solid tumors [11]; pooled analysis): had not been reached

Compound: CCc1c2c(nc3ccc(OC(=O)N4CCC(N5CCCCC5)CC4)cc13)-c1cc3c(c(=O)n1C2)COC(=O)[C@]3(O)CC [Irinotecan, irinotecan]
- T/C (%) [2]: 29.9%
- T/C (%) @ day 21 [4]: 61.8%
- RTV @day 21 [4]: 8.41 ± 2.49
- RTV @day 21 [5]: 1.0 ± 0.2
- mRECIST_best [5]: 3/5 PR and 2/5 SD
- T/C (%) @ day 21 [5]: 34.4%
- mRECIST_last [5]: 1/5 PR, and 3/5 SD, and 1/5 PD
- T/C (%) @ day 21 [9]: 26.9%
- RTV @day 21 [9]: 1.92 ± 0.24

Compound: CC(=O)O[C@H]1C(=O)[C@@]2(C)[C@H]([C@H](OC(=O)c3ccccc3)[C@]3(O)C[C@H](OC(=O)[C@H](O)[C@@H](NC(=O)c4ccccc4)c4ccccc4)C(C)=C1C3(C)C)[C@]1(OC(C)=O)CO[C@@H]1C[C@@H]2O [Paclitaxel, paclitaxel]
- T/C (%) @ day 21 [4]: 151.1%
- RTV @day 21 [4]: 20.55 ± 3.20
- RTV @day 21 [5]: 1.4 ± 0.4
- mRECIST_best [5]: 3/5 PR, and 2/5 SD
- T/C (%) @ day 21 [5]: 48.4%
- mRECIST_last [5]: 3/5 SD, and 2/5 PD
- T/C (%) @ day 21 [9]: 32.6%
- RTV @day 21 [9]: 2.33 ± 0.13

Compound: N.N.[Cl][Pt][Cl] [cisplatin]
- T/C (%) [12, 13]: 65.0%
- RTV @day 21 [5]: 2.6 ± 0.2
- mRECIST_best [5]: 2/5 SD, and 3/5 PD
- T/C (%) @ day 21 [5]: 90.2%
- mRECIST_last [5]: 5/5 PD

Compound: CC(=O)O[C@@]12CO[C@@H]1C[C@H](O)[C@@]1(C)C(=O)[C@H](O)C3=C(C)[C@@H](OC(=O)[C@H](O)[C@@H](NC(=O)OC(C)(C)C)c4ccccc4)C[C@@](O)([C@@H](OC(=O)c4ccccc4)[C@H]21)C3(C)C [docetaxel]
- T/C (%) ([12]; FIG. 5: Compound 15 100 mg/kg, docetaxel 8 mg/kg): 54.5%
- T/C (%) [12, 13]: 39.0%
- T/C (%) [8]: 72.4%
